This is an account of results in publication PMC10528299, “Targeting FAK/PYK2 with SJP1602 for Anti-Tumor Activity in Triple-Negative Breast Cancer” (Current Issues in Molecular Biology, 2023).

Common to all, as to test: Eurofins kinase profiling
Common to all, as to type: biochemical

One experiment concerns the target T1, ATR/ATRIP(h) (Homo sapiens, UniProt Q13535).
T1 construct: purchased Eurofins KinaseProfiler
The note with it: read-out: residual kinase activity ATR/ATRIP(h). In outline: (§1)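 Panel of 110 assays under standard conditions; these protein kinases were tested in the radiometric KinaseProfiler assay at a single 1 µM compound concentration.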

Another experiment deals with T2, Aurora-A(h) (Homo sapiens, UniProt O14965).
T2 construct: purchased Eurofins KinaseProfiler
T2 sequence (O14965 1-403): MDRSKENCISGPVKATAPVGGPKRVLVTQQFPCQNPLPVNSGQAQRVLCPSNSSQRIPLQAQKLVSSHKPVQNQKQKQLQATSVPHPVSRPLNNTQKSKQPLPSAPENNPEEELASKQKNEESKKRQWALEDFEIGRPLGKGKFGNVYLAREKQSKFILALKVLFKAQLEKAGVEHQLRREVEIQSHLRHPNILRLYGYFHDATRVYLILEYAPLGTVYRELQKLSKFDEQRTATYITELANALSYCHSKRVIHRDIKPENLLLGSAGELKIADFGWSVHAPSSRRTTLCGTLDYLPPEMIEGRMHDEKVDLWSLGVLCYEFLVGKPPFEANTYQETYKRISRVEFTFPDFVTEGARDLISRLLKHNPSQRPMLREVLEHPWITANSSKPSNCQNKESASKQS
Particulars: read-out: residual kinase activity Aurora-A(h). Put shortly: as §1

Another experiment deals with T3, Yes(h) (Homo sapiens, UniProt P07947).
T3 construct: purchased Eurofins KinaseProfiler
T3 sequence (P07947 whole entry): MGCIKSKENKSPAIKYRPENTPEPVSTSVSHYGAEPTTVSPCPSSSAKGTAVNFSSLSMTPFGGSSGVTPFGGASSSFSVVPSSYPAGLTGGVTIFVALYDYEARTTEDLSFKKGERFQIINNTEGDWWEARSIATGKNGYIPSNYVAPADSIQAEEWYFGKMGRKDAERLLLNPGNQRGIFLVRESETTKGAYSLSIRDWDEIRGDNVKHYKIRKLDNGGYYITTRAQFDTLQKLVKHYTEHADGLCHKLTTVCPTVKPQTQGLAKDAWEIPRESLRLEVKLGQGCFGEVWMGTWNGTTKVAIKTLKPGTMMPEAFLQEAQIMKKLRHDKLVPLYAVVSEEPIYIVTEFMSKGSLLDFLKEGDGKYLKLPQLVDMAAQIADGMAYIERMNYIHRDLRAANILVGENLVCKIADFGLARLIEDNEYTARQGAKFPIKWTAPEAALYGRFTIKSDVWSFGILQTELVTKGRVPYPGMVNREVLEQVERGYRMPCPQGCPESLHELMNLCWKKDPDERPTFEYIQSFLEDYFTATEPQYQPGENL
The note with it: read-out: residual kinase activity Yes(h). Put shortly: as §1

Another experiment addresses T4, Bmx(h) (Homo sapiens, UniProt P51813).
T4 construct: purchased Eurofins KinaseProfiler
T4 sequence (P51813 1-675): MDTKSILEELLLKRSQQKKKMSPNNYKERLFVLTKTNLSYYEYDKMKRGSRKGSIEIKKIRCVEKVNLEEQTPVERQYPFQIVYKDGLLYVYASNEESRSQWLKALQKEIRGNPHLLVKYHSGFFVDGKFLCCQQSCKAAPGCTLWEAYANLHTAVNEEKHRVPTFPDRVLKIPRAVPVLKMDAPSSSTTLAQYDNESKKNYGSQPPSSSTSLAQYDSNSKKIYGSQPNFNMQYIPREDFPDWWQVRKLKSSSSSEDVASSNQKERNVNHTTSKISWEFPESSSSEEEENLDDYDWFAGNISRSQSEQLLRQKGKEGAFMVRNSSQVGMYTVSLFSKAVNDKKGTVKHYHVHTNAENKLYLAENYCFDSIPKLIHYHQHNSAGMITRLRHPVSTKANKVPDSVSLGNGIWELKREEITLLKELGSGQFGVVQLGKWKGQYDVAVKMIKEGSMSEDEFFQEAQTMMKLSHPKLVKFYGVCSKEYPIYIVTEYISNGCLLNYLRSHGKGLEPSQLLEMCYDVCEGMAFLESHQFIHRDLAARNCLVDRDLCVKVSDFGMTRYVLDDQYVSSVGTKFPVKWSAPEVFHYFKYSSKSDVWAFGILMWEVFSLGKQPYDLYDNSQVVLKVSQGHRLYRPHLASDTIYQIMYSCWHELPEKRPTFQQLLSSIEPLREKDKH
Particulars: read-out: residual kinase activity Bmx(h). Put shortly: as §1

For the next experiment, the target named is T5, Abl(h) (Homo sapiens, UniProt P00519).
T5 construct: purchased Eurofins KinaseProfiler
T5 sequence (P00519 whole entry): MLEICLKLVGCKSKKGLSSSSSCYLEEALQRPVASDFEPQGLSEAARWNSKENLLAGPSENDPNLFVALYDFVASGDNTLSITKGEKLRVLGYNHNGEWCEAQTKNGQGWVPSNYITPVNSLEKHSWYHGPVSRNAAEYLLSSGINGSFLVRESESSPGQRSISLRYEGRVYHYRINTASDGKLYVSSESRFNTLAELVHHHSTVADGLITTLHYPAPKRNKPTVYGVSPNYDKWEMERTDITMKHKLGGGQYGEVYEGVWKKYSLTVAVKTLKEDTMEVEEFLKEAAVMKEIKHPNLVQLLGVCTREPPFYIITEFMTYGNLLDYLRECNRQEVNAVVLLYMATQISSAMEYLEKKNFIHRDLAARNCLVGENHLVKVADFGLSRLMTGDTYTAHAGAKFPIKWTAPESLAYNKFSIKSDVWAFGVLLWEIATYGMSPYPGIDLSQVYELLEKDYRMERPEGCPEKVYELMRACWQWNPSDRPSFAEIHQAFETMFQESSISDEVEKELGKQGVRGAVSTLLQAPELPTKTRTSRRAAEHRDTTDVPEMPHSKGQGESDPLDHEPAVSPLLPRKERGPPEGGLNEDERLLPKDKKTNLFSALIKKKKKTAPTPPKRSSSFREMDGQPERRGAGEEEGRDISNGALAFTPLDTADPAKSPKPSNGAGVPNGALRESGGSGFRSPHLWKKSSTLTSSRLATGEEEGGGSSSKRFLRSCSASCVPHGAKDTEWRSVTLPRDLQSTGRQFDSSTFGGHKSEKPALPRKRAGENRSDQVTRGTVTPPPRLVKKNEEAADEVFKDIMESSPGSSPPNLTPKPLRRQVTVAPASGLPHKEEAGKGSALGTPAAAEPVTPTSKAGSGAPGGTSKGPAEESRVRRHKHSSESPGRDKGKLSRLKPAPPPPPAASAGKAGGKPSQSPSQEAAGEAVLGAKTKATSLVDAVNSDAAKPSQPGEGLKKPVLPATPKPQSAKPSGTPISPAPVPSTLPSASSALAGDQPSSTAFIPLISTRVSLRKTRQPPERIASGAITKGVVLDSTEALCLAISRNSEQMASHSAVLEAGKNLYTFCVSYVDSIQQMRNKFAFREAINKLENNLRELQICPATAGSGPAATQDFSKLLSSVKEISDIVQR
The note with it: read-out: residual kinase activity Abl(h). Put shortly:
as §1

In another experiment the target is T6, CK1γ1(h) (Homo sapiens, UniProt Q9HCP0).
T6 construct: purchased Eurofins KinaseProfiler
T6 sequence (Q9HCP0 whole entry): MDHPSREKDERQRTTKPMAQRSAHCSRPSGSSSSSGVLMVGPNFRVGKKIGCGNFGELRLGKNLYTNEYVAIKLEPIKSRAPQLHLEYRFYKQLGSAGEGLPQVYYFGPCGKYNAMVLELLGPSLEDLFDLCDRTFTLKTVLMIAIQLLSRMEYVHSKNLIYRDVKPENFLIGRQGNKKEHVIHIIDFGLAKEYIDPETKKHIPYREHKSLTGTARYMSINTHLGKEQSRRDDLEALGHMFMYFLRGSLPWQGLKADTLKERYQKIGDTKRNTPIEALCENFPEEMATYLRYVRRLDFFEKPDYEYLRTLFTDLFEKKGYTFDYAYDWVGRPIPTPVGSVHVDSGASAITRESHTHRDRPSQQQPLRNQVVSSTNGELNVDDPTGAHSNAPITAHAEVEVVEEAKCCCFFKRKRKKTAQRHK
Particulars: read-out: residual kinase activity CK1γ1(h). In outline:
as §1

The target of another experiment is T7, FGFR1(h) (Homo sapiens, UniProt P11362).
T7 construct: purchased Eurofins KinaseProfiler
T7 sequence (P11362 22-822): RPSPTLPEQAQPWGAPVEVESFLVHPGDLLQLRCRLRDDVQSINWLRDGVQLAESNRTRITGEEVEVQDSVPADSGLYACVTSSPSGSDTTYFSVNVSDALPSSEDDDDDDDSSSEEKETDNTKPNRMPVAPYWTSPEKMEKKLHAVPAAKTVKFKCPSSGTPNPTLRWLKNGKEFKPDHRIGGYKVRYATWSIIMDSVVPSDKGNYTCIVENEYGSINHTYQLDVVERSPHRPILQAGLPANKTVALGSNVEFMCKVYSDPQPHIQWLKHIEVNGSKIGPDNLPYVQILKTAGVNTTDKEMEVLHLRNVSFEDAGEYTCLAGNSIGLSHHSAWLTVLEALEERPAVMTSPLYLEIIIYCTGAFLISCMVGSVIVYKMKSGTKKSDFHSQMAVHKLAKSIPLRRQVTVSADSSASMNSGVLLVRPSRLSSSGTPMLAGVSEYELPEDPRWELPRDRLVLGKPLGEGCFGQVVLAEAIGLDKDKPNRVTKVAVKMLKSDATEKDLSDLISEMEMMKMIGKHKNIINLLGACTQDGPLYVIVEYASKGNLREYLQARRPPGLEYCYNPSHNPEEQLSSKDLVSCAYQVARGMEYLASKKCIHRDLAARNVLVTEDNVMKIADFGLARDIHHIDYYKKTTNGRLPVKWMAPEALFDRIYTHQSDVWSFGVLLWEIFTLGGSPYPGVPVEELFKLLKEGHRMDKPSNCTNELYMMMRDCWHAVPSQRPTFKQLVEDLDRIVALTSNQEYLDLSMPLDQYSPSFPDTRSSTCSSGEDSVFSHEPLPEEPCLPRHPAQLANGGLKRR
Particulars: read-out: residual kinase activity FGFR1(h). Put shortly: as §1

A further experiment deals with T8, IKKα(h) (Homo sapiens, UniProt O15111).
T8 construct: purchased Eurofins KinaseProfiler
T8 sequence (O15111 1-745): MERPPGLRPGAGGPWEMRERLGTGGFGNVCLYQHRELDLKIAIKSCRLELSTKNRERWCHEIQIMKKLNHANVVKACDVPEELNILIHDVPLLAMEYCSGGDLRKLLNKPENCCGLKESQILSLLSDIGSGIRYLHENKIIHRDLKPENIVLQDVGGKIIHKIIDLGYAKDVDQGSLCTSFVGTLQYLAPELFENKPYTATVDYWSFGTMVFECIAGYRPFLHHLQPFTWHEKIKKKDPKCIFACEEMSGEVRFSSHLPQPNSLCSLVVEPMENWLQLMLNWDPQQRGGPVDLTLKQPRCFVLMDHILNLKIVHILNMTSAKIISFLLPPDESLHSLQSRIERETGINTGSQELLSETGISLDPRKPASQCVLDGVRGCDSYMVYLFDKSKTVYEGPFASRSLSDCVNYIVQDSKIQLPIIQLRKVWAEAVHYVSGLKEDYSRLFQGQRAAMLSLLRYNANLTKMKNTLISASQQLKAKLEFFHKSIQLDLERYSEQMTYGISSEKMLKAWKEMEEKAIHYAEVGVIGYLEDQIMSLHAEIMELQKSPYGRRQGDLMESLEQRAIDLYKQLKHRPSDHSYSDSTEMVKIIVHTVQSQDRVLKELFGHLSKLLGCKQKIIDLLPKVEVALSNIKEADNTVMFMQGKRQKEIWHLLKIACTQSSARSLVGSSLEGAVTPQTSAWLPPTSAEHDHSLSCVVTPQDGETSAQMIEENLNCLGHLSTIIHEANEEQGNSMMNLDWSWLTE
The note with it: read-out: residual kinase activity IKKα(h). In outline: as §1

For the next experiment, the target named is T9, Fms(h) (Homo sapiens, UniProt P07333).
T9 construct: purchased Eurofins KinaseProfiler
T9 sequence (P07333 20-972): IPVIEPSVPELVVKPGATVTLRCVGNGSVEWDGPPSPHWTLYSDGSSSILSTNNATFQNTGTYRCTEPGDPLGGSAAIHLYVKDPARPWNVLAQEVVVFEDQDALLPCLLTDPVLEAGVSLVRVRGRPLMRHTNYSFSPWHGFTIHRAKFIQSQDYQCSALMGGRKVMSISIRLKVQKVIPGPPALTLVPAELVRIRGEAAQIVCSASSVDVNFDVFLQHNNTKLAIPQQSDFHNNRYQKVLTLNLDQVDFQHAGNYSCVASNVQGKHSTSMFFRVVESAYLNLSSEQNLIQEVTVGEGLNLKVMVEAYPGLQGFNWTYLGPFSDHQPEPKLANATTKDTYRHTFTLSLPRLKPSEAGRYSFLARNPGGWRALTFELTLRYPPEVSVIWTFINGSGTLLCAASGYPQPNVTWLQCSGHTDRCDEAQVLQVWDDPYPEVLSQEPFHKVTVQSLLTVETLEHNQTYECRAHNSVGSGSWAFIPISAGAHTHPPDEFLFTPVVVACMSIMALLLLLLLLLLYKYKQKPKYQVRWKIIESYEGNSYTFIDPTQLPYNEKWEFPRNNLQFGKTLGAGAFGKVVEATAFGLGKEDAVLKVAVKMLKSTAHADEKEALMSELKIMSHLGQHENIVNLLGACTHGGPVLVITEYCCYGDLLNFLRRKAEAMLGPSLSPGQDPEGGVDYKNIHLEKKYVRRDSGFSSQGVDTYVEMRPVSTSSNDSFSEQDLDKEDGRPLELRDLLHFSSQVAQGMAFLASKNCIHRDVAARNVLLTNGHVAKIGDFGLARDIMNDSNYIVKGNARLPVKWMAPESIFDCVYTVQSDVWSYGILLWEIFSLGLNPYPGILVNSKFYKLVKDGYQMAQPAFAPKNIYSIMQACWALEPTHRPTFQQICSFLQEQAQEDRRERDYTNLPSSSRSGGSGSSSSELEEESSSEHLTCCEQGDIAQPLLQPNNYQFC
Particulars: read-out: residual kinase activity Fms(h). In outline: as §1

With `CNC(=O)c1cccc(C)c1Nc1nc(Nc2ccc(N3CCN(C4C5CC6CC4CC(O)(C6)C5)CC3)cc2OC)ncc1C(F)(F)F` (stereo not drawn) [SJP1602, 2-((2-((4-(4-((2s,5r)-5-hydroxyadamantan-2-yl)piperazin-1-yl)-2-methoxyphenyl)amino)-5-(trifluoromethyl)pyrimidin-4-yl)amino)-N,3-dimethylbenzamide], the remaining activity at 1 µM on ATR/ATRIP(h) came out at 97%; on Aurora-A(h), 48%; on Yes(h), 84%; on Bmx(h) it was 84%; at Abl(h) it was 76%; on CK1γ1(h), 105%. Moreover, the values for the remaining activity at 1 µM at FGFR1(h), on IKKα(h) and at Fms(h) were 111%, 130% and 85%, respectively.
With `CNC(=O)c1ccc(Nc2ncc(C(F)(F)F)c(NCc3nccnc3N(C)S(C)(=O)=O)n2)cc1` [VS-6063, Defactinib], the remaining activity at 1 µM turned out to be 92% at ATR/ATRIP(h); 12% on Aurora-A(h); 56% on Yes(h); 47% at Bmx(h); 57% at Abl(h); 81% on CK1γ1(h). Also, the remaining activity at 1 µM on FGFR1(h) stood at 43%; at IKKα(h), 125%; at Fms(h), 67%.
`CONC(=O)c1ccccc1Nc1cc(Nc2cc(C)nn2C(C)C)ncc1Cl` [GSK2256098]: the remaining activity at 1 µM on ATR/ATRIP(h) came out at 101%; at Aurora-A(h), 43%; at Yes(h), 99%; at Bmx(h) it was 105%; at Abl(h), 99%; on CK1γ1(h) it was 99%. Moreover, the remaining activity at 1 µM at FGFR1(h) came to 109%; at IKKα(h), 93%; on Fms(h) it was 88%.
